Results published in PubChem BioAssay AID2060894 (Molecular Pharmacology Branch, DTP, NCI, 2025).

Test system: K12877-001-R-J1-PDC complex spheroid viability
Test: Anticancer human tumor K12877-001-R-J1-PDC patient-derived lung adenocarcinoma cell line growth inhibition [RAS]
Conditions: for IC50: curve of first compound; for viability, T/C: stronger effect = lower value
Procedure, shortened: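 Agents were tested in combination matrices in half-log decrements from a top concentration at or near clinical Cmax (10 microM if undetermined). Targets were multi-cell spheroids of tumour lines plus HUVEC and MSC stromal cells.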

[1] = second compound 0.000949 µM, first compound 0.0316 µM
[2] = second compound 0.000949 µM, first compound 0.1 µM
[3] = second compound 0.000949 µM, first compound 0.316 µM
[4] = second compound 0.000949 µM, first compound 1 µM
[5] = second compound 0.003 µM, first compound 0.0316 µM
[6] = second compound 0.003 µM, first compound 0.1 µM
[7] = second compound 0.003 µM, first compound 0.316 µM
[8] = second compound 0.003 µM, first compound 1 µM
[9] = second compound 0.00949 µM, first compound 0.0316 µM
[10] = second compound 0.00949 µM, first compound 0.1 µM
[11] = second compound 0.00949 µM, first compound 0.316 µM
[12] = second compound 0.00949 µM, first compound 1 µM
[13] = second compound 0.03 µM, first compound 0.0316 µM
[14] = second compound 0.03 µM, first compound 0.1 µM
[15] = second compound 0.03 µM, first compound 0.316 µM
[16] = second compound 0.03 µM, first compound 1 µM
[17] = second compound 0.0949 µM, first compound 0.0316 µM
[18] = second compound 0.0949 µM, first compound 0.1 µM
[19] = second compound 0.0949 µM, first compound 0.316 µM
[20] = second compound 0.0949 µM, first compound 1 µM
[21] = second compound 0.3 µM, first compound 0.0316 µM
[22] = second compound 0.3 µM, first compound 0.1 µM
[23] = second compound 0.3 µM, first compound 0.316 µM
[24] = second compound 0.3 µM, first compound 1 µM
[25] = second compound 0.000949 µM, first compound 3.16 µM
[26] = second compound 0.000949 µM, first compound 10 µM
[27] = second compound 0.003 µM, first compound 3.16 µM
[28] = second compound 0.003 µM, first compound 10 µM
[29] = second compound 0.00949 µM, first compound 3.16 µM
[30] = second compound 0.00949 µM, first compound 10 µM
[31] = second compound 0.03 µM, first compound 3.16 µM
[32] = second compound 0.03 µM, first compound 10 µM
[33] = second compound 0.0949 µM, first compound 3.16 µM
[34] = second compound 0.0949 µM, first compound 10 µM
[35] = second compound 0.3 µM, first compound 3.16 µM
[36] = second compound 0.3 µM, first compound 10 µM
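Note: spheroids exposed to agents for one week before readout.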
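Throughout, for viability, T/C: tumour cells co-cultured with HUVEC and mesenchymal stem cells in spheroids.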

With `C=CC(=O)Nc1cc(Nc2nccc(-c3cn(C)c4ccccc34)n2)c(OC)cc1N(C)CCN(C)C` + CCn1c(-c2cccnc2C(C)OC)c2c3cc(ccc31)N1CCOC(CC(NC(=O)C(C(C)C)N(C)C(=O)C3(F)CCN(C(=O)C#CC(C)(C)N(C)C)CC3)C(=O)N3CCCC(N3)C(=O)OCC(C)(C)C2)C1 the IC50 (second compound 0.000949 µM) was over 1000 nM, the IC50 (second compound 0.003 µM) was over 1000 nM and the IC50 (second compound 0.00949 µM) was over 1000 nM. The IC50 (second compound 0.03 µM) was over 1000 nM, the IC50 (second compound 0.0949 µM) was over 1000 nM and the IC50 (second compound 0.3 µM) was over 1000 nM. The viability, T/C (second compound 0.000949 µM, first compound 0.00316 µM) was 90.4%, the viability, T/C (second compound 0.000949 µM, first compound 0.01 µM) was 75.9% and the viability, T/C [1] was 85.4%. The viability, T/C [2] was 78.5%, the viability, T/C [3] was 78% and the viability, T/C [4] was 69.8%. It also gave a viability, T/C (second compound 0.003 µM, first compound 0.00316 µM) of 78.2%, a viability, T/C (second compound 0.003 µM, first compound 0.01 µM) of 75.2% and a viability, T/C [5] of 69.3%. It also gave a viability, T/C [6] of 70.5%, a viability, T/C [7] of 74.3% and a viability, T/C [8] of 70.3%. The viability, T/C (second compound 0.00949 µM, first compound 0.00316 µM) was 82.3%, the viability, T/C (second compound 0.00949 µM, first compound 0.01 µM) was 65% and the viability, T/C [9] was 75.1%. The viability, T/C [10] was 71%, the viability, T/C [11] was 71.6% and the viability, T/C [12] was 62.7%. It also gave a viability, T/C (second compound 0.03 µM, first compound 0.00316 µM) of 80.5%, a viability, T/C (second compound 0.03 µM, first compound 0.01 µM) of 73.2% and a viability, T/C [13] of 78.7%. The viability, T/C [14] was 79%, the viability, T/C [15] was 64.5% and the viability, T/C [16] was 65%. The viability, T/C (second compound 0.0949 µM, first compound 0.00316 µM) was 67.2%, the viability, T/C (second compound 0.0949 µM, first compound 0.01 µM) was 72.7% and the viability, T/C [17] was 74%. The viability, T/C [18] was 69.5%, the viability, T/C [19] was 63.5% and the viability, T/C [20] was 48.5%. The viability, T/C (second compound 0.3 µM, first compound 0.00316 µM) was 69.8%, the viability, T/C (second compound 0.3 µM, first compound 0.01 µM) was 67% and the viability, T/C [21] was 71.2%. For the same compound, the viability, T/C [22] was 70.2%, the viability, T/C [23] was 58.7% and the viability, T/C [24] was 52.8%.
In the case of `C[C@@H](NC(=O)c1ncnc(N)c1Cl)c1ncc(C(=O)Nc2cc(C(F)(F)F)c(Cl)cn2)s1` + CCn1c(-c2cccnc2C(C)OC)c2c3cc(ccc31)N1CCOC(CC(NC(=O)C(C(C)C)N(C)C(=O)C3(F)CCN(C(=O)C#CC(C)(C)N(C)C)CC3)C(=O)N3CCCC(N3)C(=O)OCC(C)(C)C2)C1, the IC50 (second compound 0.000949 µM) is reported as over 10000 nM, the IC50 (second compound 0.003 µM) is reported as over 10000 nM and the IC50 (second compound 0.00949 µM) is reported as over 10000 nM. The IC50 (second compound 0.03 µM) was over 10000 nM, the IC50 (second compound 0.0949 µM) was over 10000 nM and the IC50 (second compound 0.3 µM) was over 10000 nM. It also gave a viability, T/C [1] of 84.5%, a viability, T/C [2] of 84.7% and a viability, T/C [3] of 77.3%. The viability, T/C [4] was 85.3%, the viability, T/C [25] was 74.4% and the viability, T/C [26] was 82.7%. For the same compound, the viability, T/C [5] was 80.2%, the viability, T/C [6] was 79.2% and the viability, T/C [7] was 72.6%. The viability, T/C [8] was 82%, the viability, T/C [27] was 91.2% and the viability, T/C [28] was 76.8%. It also gave a viability, T/C [9] of 84.3%, a viability, T/C [10] of 74.9% and a viability, T/C [11] of 72%. It also gave a viability, T/C [12] of 73.4%, a viability, T/C [29] of 81.3% and a viability, T/C [30] of 78.8%. For the same compound, the viability, T/C [13] was 80.3%, the viability, T/C [14] was 81.1% and the viability, T/C [15] was 71.3%. The viability, T/C [16] was 88.2%, the viability, T/C [31] was 89.9% and the viability, T/C [32] was 87.5%. The viability, T/C [17] was 79.5%, the viability, T/C [18] was 77.8% and the viability, T/C [19] was 78.4%. It also gave a viability, T/C [20] of 75.3%, a viability, T/C [33] of 89.7% and a viability, T/C [34] of 72%. The viability, T/C [21] was 72%, the viability, T/C [22] was 71.7% and the viability, T/C [23] was 64.3%. For the same compound, the viability, T/C [24] was 69.8%, the viability, T/C [35] was 69.3% and the viability, T/C [36] was 52.9%.
For `CC1(O)CCCC1n1c(=O)c(C(F)F)cc2cnc(NC3CCN(S(C)(=O)=O)CC3)nc21` (stereo not drawn) + CCn1c(-c2cc(N3CCN(C)CC3)cnc2C(C)OC)c2c3cc(ccc31)-c1csc(n1)CC(NC(=O)C1CC1C)C(=O)N1CCCC(N1)C(=O)OCC(C)(C)C2, the IC50 (second compound 0.000949 µM) was 4010 nM, the IC50 (second compound 0.003 µM) was 1990 nM and the IC50 (second compound 0.00949 µM) was 1840 nM. It also gave an IC50 (second compound 0.03 µM) of 889 nM, an IC50 (second compound 0.0949 µM) of 545 nM and an IC50 (second compound 0.3 µM) of 382 nM. The viability, T/C [1] was 95.9%, the viability, T/C [2] was 78% and the viability, T/C [3] was 80.6%. For the same compound, the viability, T/C [4] was 75.6%, the viability, T/C [25] was 64.5% and the viability, T/C [26] was 3.86%. It also gave a viability, T/C [5] of 68.9%, a viability, T/C [6] of 74% and a viability, T/C [7] of 64.5%. The viability, T/C [8] was 56.2%, the viability, T/C [27] was 46.3% and the viability, T/C [28] was 3.15%. For the same compound, the viability, T/C [9] was 69.5%, the viability, T/C [10] was 75.4% and the viability, T/C [11] was 46.4%. The viability, T/C [12] was 56.5%, the viability, T/C [29] was 48.5% and the viability, T/C [30] was 2.9%. It also gave a viability, T/C [13] of 98.8%, a viability, T/C [14] of 82% and a viability, T/C [15] of 47.6%. For the same compound, the viability, T/C [16] was 58.9%, the viability, T/C [31] was 46% and the viability, T/C [32] was 2.97%. The viability, T/C [17] was 92%, the viability, T/C [18] was 62.1% and the viability, T/C [19] was 45.7%. It also gave a viability, T/C [20] of 50.4%, a viability, T/C [33] of 41.6% and a viability, T/C [34] of 2.68%. It also gave a viability, T/C [21] of 76.7%, a viability, T/C [22] of 58% and a viability, T/C [23] of 41.7%. For the same compound, the viability, T/C [24] was 49.6%, the viability, T/C [35] was 43.6% and the viability, T/C [36] was 2.64%.
For `CC1(O)CCCC1n1c(=O)c(C(F)F)cc2cnc(NC3CCN(S(C)(=O)=O)CC3)nc21` (stereo not drawn), the viability, T/C (compound 0.0316 µM) was 99.7% [middle of 4 runs] and the viability, T/C (compound 10 µM) was 3.53% [middle of 4 runs].
